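Cells were grown in 96-well plates and exposed to each compound for 48 hours at five concentrations; endpoints were interpolated linearly between bracketing concentrations, or set to the highest concentration if not reached. TGI: concentration producing complete growth inhibition.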

Test systems include SF-539 CNS; KM12 colon; OVCAR-3 ovarian; SN12C renal; TK-10 renal; IGROV1 ovarian; SF-295 CNS; HOP-62 NSCLC; SNB-19 CNS; CAKI-1 renal; CCRF-CEM leukemia; LOX IMVI melanoma; SNB-75 CNS; SK-MEL-2 melanoma; SW-620 colon; UACC-257 melanoma; NCI-H23 lung; HCT-116 colon; K-562 leukemia; OVCAR-5 ovarian.
Common to all, as to test: NCI-60 cell line screen, 48 h

For the compound `CC[n+]1c(/C=C/c2ccc(N(CCCl)CCCl)cc2)ccc2cc(NC(=O)/C=C/c3ccccc3)ccc21`, the TGI in the assay on SF-539 CNS came out at 2.03 µM; with KM12 colon, 1.58 µM; with OVCAR-3 ovarian it was 11.4 µM; in the assay with SN12C renal, 1.52 µM; in the assay with TK-10 renal it was 24.5 µM; with IGROV1 ovarian, 1.86 µM. Also, the TGI with SF-295 CNS was 7.81 µM; in the assay on HOP-62 NSCLC, 1.74 µM; in the assay on SNB-19 CNS, 1.67 µM; in the assay on CAKI-1 renal, 19.2 µM; in the assay on CCRF-CEM leukemia it was 0.831 µM; with LOX IMVI melanoma, 1.51 µM. Also, the TGI in the assay with SNB-75 CNS stood at 1.05 µM; in the assay with SK-MEL-2 melanoma it was 1.27 µM; with SW-620 colon, 0.67 µM; with UACC-257 melanoma, 1.13 µM; in the assay on NCI-H23 lung, 1.98 µM; with HCT-116 colon, 1.34 µM. In addition, the TGI in the assay on K-562 leukemia was 0.235 µM; in the assay with OVCAR-5 ovarian, 6.03 µM.
On to `Brc1ccccc1-c1ncc(-c2ccccc2)o1`, for which the TGI in the assay with SF-539 CNS is 77.1 µM; in the assay on KM12 colon it was 41.7 µM; with OVCAR-3 ovarian, 89.6 µM; with SN12C renal it was greater than 100 µM; in the assay on TK-10 renal, greater than 100 µM; with IGROV1 ovarian, 78.7 µM. Besides, the TGI in the assay on SF-295 CNS was greater than 100 µM; in the assay with HOP-62 NSCLC, 96.8 µM; with SNB-19 CNS it was greater than 100 µM; in the assay with CAKI-1 renal it was greater than 100 µM; in the assay on CCRF-CEM leukemia it was 54.7 µM; in the assay on LOX IMVI melanoma, 34.1 µM. Also, the TGI is 59.7 µM in the assay on SNB-75 CNS; 89.9 µM in the assay with SK-MEL-2 melanoma; greater than 100 µM with SW-620 colon; greater than 100 µM with UACC-257 melanoma; greater than 100 µM with NCI-H23 lung; greater than 100 µM in the assay with HCT-116 colon. Besides, the TGI in the assay with K-562 leukemia and in the assay on OVCAR-5 ovarian was greater than 100 µM each time.

The values above are taken from PubChem BioAssay (NCI).
